{"source": "patent US8168199B2", "about": "“Dipeptidyl peptidase IV inhibitors for the treatment of schizophrenia and depression” (priority 2000, dated 2012)", "tested_on": "Male WistarF/Han (WF) rats", "assay": "1 h food-intake with Y1R antagonist BIBP3226, P32/98 and NPY (Example 4)", "type": "in vivo, rat", "details": "i.c.v. 50 nmol", "method": "Animals. Male WistarF/Han (WF) rats (Central Animal Laboratory, Hannover Medical School, Hannover, Germany, weighing 330±31 g±SD, were housed in a sound-proof, temperature controlled (24.0±0.5° C.) room under specific pathogen free conditions with a 12/12 h dark/light cycle (lights on at 07.00 with illumination level of 80 Lux). Food (Altromin lab chow pellets) and tap water were available ad libitum. Under ketamine/xylasine (100/5 mg/kg, i.p.) anesthesia, the rats were fixed in a Kopf stereotaxic frame and implanted with cannulae (Plastic One, Inc., Roanoke, Va., USA) above the lateral ventricle. All research and animal care procedures were approved by the Lower Saxony district government (Hannover, Germany) and followed principles described in the European Community's Council Directive of 24 Nov. 1986 (86/609/EEC).\nSurgery and i.c.v. application. […]\nAnimals were randomly divided into eight experimental groups (n=6-8/group), which completed one SI test of anxiety: (1) aCSF+aCSF+aCSF; (2) BIBP+aCSF+aCSF; (3) aCSF+P32/98+aCSF; (4) BIBP+P32/98+aCSF; (5) aCSF+aCSF+NPY; (6) BIBP+aCSF+NPY; (7) aCSF+[…]+NPY; (8) BIBP+P32/98+NPY. […] The time spent in active social interaction (SI-time), 1 h, and 12 h food-intake were measured. […]\nStatistical analysis. Data obtained from the measures SI time and 1 h food intake were analyzed by one-way (factor: “treatment”) ANOVA. […]"}
{"smiles": "CC[C@H](C)[C@H](N)C(=O)N1CCSC1", "note": "[P32/98]", "values": [{"measurement": "1 h food-intake, P32/98 alone", "result": "non-significant slight increase of feeding"}]}
